# Legend:
# [1] = tested on: Mus musculus; test: The compound was evaluated in vivo for spontaneous activity(SA) in a mouse model; type: functional
# [2] = tested on: Mus musculus; test: The compound was evaluated in vivo for hypothermia(as rectal temperature) in a mouse model; type: functional
# [3] = tested on: Mus musculus; test: The compound was evaluated in vivo for antinociception (TF) activity in a mouse model; type: functional
# [4] = target: Cannabinoid receptor (Homo sapiens, UniProt P34972+P21554); test: The affinity of compound for the cannabinoid brain receptor was determined by measuring its ability to displace [3H]CP-55940 from its binding site in a membrane preparation; type: cell membranes
SMILES,ED50 [1] [µmol/kg],ED50 [2] [µmol/kg],ED50 [3] [µmol/kg],Ki [4] [nM]
CCCCCCC(C)(C)c1cc(O)c2c(c1)OC(C)(C)[C@@H]1CC=C(CO)C[C@@H]21,0.01,0.05,0.02,
CC1=CC[C@@H]2[C@H](C1)c1c(O)cc(C(C)C(C)C3CCCC3)cc1OC2(C)C (stereo partly specified),0.04,0.07,0.1,0.6
CC1=CC[C@@H]2[C@@H](C1)c1c(O)cc(C(C)C(C)C3CCCC3)cc1OC2(C)C (stereo partly specified),0.45,0.63,0.42,0.84
CC1=CC[C@H]2[C@H](C1)c1c(O)cc(C(C)C(C)C3CCCC3)cc1OC2(C)C (stereo partly specified),0.12,0.19,0.18,0.81
CC1=CC[C@H]2[C@@H](C1)c1c(O)cc(C(C)C(C)C3CCCC3)cc1OC2(C)C (stereo partly specified),0.03,0.07,0.03,0.46
CCCCCCC(C)(C)c1cc(O)c2c(c1)OC(C)(C)[C@@H]1CC=C(C)C[C@@H]21,0.27,0.15,0.14,0.77
CCCCCc1cc(O)c2c(c1)OC(C)(C)[C@@H]1CC=C(C)C[C@@H]21 [DELTA-8-TETRAHYDROCANNABINOL],2.9,4.8,4.5,

# Source: ChEMBL document CHEMBL1129217, “Synthesis and pharmacology of the 1,2-dimethylheptyl-8-THC isomers: exceptionally potent cannabinoids” (Bioorg Med Chem Lett, 1997)
